A word on the IC50: it is the point on the concentration scale where inhibition reaches its midpoint.

What all share (type): cell-based
One assay deals with T1, human TLR7 (Homo sapiens, UniProt Q9NYK1).
T1 construct: host or cells: HEK-Blue cells
T1 sequence (Q9NYK1 27-1049): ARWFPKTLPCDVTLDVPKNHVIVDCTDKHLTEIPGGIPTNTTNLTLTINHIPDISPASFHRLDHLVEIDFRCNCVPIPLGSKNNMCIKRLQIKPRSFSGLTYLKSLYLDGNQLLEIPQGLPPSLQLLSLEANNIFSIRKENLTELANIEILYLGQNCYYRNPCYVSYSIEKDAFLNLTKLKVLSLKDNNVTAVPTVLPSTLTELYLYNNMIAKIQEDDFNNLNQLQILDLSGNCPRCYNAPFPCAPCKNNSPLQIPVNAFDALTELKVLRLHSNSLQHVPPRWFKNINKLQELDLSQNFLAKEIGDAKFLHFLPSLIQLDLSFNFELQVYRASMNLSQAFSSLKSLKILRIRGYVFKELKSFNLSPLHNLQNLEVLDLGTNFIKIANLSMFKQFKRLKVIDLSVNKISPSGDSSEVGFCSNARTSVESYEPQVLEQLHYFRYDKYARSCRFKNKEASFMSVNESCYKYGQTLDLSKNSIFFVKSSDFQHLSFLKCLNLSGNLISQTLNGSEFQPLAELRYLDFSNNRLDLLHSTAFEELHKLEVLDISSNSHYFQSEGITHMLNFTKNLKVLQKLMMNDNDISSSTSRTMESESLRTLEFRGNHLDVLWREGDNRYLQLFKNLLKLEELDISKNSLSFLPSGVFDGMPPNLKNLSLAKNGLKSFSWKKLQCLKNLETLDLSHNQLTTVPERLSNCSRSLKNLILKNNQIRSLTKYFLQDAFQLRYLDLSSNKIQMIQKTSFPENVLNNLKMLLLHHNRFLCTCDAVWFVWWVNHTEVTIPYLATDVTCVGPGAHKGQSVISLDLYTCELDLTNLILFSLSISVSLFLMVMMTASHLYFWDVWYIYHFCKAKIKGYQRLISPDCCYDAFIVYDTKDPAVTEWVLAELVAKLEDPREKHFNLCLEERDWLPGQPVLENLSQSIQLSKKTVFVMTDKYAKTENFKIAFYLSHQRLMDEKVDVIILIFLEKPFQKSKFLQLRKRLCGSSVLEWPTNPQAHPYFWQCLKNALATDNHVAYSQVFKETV
As to the kind of experiment: TLR7 inhibition reporter assay (HEK-Blue cells, SEAP reporter, gardiquimod stimulation). Particulars: HEK-Blue cells overexpressing human TLR7, SEAP reporter, gardiquimod 7.5 μM; read-out: TLR7 IC50. A digest of the protocol: (§1)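 Compound treatment: 30 min, RT, 0.05 nM–50 μM final. Agonist: TLR7 gardiquimod 7.5 μM; TLR8 R848 15.9 μM; TLR9 ODN2006 5 nM. Incubation 22 h, 37 °C, 5% CO2. Readout SEAP, HEK-Blue Detection.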

Another assay deals with T2, human TLR9 (Homo sapiens, UniProt Q9NR96).
T2 construct: host or cells: HEK-Blue cells
T2 sequence (Q9NR96 26-1032): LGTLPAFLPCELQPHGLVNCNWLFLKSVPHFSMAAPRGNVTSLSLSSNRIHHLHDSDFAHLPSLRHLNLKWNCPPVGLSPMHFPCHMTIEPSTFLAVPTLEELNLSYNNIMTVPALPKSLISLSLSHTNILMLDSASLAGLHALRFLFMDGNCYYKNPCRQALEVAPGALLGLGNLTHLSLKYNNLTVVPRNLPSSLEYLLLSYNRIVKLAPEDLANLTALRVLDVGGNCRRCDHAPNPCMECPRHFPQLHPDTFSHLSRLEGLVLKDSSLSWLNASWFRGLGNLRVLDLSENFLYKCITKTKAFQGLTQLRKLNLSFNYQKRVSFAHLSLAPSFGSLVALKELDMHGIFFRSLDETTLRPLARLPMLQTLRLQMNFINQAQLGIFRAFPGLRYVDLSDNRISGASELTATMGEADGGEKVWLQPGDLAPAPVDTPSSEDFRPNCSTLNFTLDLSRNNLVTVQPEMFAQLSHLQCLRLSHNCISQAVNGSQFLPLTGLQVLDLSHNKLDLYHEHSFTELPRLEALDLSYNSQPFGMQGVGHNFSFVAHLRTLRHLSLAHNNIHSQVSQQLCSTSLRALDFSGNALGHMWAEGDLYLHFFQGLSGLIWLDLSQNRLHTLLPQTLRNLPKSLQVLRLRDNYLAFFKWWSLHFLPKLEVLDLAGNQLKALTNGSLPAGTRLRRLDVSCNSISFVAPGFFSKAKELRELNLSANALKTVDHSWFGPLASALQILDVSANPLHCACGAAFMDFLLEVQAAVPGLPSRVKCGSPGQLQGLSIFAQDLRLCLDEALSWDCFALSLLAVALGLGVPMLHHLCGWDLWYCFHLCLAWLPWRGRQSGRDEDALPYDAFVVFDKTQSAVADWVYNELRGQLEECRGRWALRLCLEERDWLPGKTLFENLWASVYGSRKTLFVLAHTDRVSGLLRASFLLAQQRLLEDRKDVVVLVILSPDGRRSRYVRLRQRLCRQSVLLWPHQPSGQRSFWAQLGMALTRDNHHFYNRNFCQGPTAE
The assay is described as follows: TLR9 inhibition reporter assay (HEK-Blue cells, SEAP reporter, ODN2006 stimulation). As to conditions: HEK-Blue cells overexpressing human TLR9, SEAP reporter, ODN2006 5 nM. The gist of the method:
as §1

Another assay addresses T3, human TLR8 (Homo sapiens, UniProt Q9NR97).
T3 construct: host or cells: HEK-Blue cells
T3 sequence (Q9NR97 27-1041): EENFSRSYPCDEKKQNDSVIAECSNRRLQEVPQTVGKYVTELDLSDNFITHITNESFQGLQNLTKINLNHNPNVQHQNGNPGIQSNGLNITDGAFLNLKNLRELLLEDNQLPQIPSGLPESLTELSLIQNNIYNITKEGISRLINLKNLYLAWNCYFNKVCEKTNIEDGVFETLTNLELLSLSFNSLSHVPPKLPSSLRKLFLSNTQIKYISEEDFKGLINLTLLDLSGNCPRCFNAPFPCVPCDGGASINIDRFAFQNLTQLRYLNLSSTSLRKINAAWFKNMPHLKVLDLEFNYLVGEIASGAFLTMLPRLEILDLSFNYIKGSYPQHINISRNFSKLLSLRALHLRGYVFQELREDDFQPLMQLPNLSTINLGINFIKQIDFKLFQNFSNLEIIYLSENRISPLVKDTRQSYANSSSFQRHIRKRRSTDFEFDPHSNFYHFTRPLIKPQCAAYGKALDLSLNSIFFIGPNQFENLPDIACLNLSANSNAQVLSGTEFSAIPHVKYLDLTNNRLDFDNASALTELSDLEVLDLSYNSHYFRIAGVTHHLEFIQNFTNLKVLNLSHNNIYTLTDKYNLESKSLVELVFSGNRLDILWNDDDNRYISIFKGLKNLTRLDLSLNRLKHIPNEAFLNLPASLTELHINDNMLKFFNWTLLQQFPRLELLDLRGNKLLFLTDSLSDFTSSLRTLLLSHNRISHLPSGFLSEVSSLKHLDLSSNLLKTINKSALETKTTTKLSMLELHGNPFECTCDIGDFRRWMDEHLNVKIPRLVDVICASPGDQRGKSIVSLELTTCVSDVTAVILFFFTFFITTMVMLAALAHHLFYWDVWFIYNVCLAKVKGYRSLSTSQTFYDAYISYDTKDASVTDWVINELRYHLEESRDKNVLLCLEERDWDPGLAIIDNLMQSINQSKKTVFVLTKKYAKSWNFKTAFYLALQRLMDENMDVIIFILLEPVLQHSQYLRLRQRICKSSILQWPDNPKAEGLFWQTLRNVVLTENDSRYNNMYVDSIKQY
The assay is described as follows: TLR8 inhibition reporter assay (HEK-Blue cells, SEAP reporter, R848 stimulation). Particulars: HEK-Blue cells overexpressing human TLR8, SEAP reporter, R848 15.9 μM; read-out: TLR8 IC50. A digest of the protocol: as §1
(In a reporter assay the amount or activity of a reporter protein is the signal.)

For the compound `CC(C)c1c(-c2cn(C)c3ncccc23)[nH]c2sc(C3CCN(CC(=O)N(C)C)CC3)nc12` [Example 30, 2-(4-(6-isopropyl-5-(1-methyl-1H-pyrrolo[2,3-b]pyridin-3-yl)-4H-pyrrolo[3,2-d]thiazol-2-yl)piperidin-1-yl)-N,N-dimethylacetamide], the IC50 at human TLR7 was 4.37 nM; against human TLR9, 14800 nM; at human TLR8 it was 2.07 nM.

On to `CC(C)c1c(-c2cn(C)c3ncccc23)[nH]c2sc(C3CCN(C4CCOCC4)CC3)nc12` [Example 35, 6-isopropyl-5-(1-methyl-1H-pyrrolo[2,3-b]pyridin-3-yl)-2-(1-(tetrahydro-2H-pyran-4-yl)piperidin-4-yl)-4H-pyrrolo[3,2-d]thiazole], for which the half-maximal inhibitory concentration (IC50) at human TLR7 turned out to be 2.77 nM; against human TLR9, 4350 nM; at human TLR8, 0.79 nM.

On to `CC(C)c1c(-c2cn(C)c3ncccc23)[nH]c2sc(C3CCN(C(C)C)CC3)nc12` [Example 36, 6-isopropyl-2-(1-isopropylpiperidin-4-yl)-5-(1-methyl-1H-pyrrolo[2,3-b]pyridin-3-yl)-4H-pyrrolo[3,2-d]thiazole], for which the IC50 on human TLR7 was determined as 1300 nM; against human TLR9 it was 25200 nM; at human TLR8, 1540 nM.

Take `CC(C)c1c(-c2ccc(C#N)c3ncccc23)[nH]c2sc(C3CCN(C4COC4)CC3)nc12` [Example 37, 5-(6-isopropyl-2-(1-(oxetan-3-yl)piperidin-4-yl)-4H-pyrrolo[3,2-d]thiazol-5-yl)quinoline-8-carbonitrile]: the 50% inhibitory concentration (IC50) at human TLR7 was 12.1 nM; against human TLR9, 27900 nM; at human TLR8, 27 nM.

For the compound `CC(C)c1c(-c2ccc(C#N)c3ncccc23)[nH]c2sc(C3CCN(C4CCOCC4)CC3)nc12` [Example 38, 5-(6-isopropyl-2-(1-(tetrahydro-2H-pyran-4-yl)piperidin-4-yl)-4H-pyrrolo[3,2-d]thiazol-5-yl) quinoline-8-carbonitrile], the IC50 worked out at 7.93 nM at human TLR7, 2280 nM against human TLR9 and 4.43 nM at human TLR8.

As for `CC(C)c1c(-c2ccc(C#N)c3ncccc23)[nH]c2sc(C3CCN(C(=O)CN(C)C)CC3)nc12` [Example 39, 5-(2-(1-(dimethylglycyl)piperidin-4-yl)-6-isopropyl-4H-pyrrolo[3,2-d]thiazol-5-yl)quinoline-8-carbonitrile], the 50% inhibitory concentration (IC50) at human TLR7 is 8.31 nM; against human TLR9, 3560 nM; at human TLR8 it was 25.5 nM.

In the case of `CC(C)c1c(-c2ccc(C#N)c3ncccc23)[nH]c2sc(C3CCN(CC(=O)N(C)C)CC3)nc12` [Example 40, 2-(4-(5-(8-cyanoquinolin-5-yl)-6-isopropyl-4H-pyrrolo[3,2-d]thiazol-2-yl)piperidin-1-yl)-N,N-dimethylacetamide], the results for the half-maximal inhibitory concentration (IC50) at human TLR7, against human TLR9 and at human TLR8 were 29.9 nM, 18900 nM and 31.1 nM, respectively.

`Cc1c(-c2[nH]c3sc(C4CCNCC4)nc3c2C(C)C)cn2ncnc2c1C` [Example 41, 5-(7,8-dimethyl-[1,2,4]triazolo[1,5-a]pyridin-6-yl)-6-isopropyl-2-(piperidin-4-yl)-4H-pyrrolo[3,2-d]thiazole]: the figures for the IC50 at human TLR7, on human TLR9 and at human TLR8 were 1.19 nM, 8430 nM and 2.66 nM, respectively.

With `Cc1c(-c2[nH]c3sc(C4CCNCC4)nc3c2C(C)C)cn(C)c(=O)c1C` [Example 42, 5-(6-isopropyl-2-(piperidin-4-yl)-4H-pyrrolo[3,2-d]thiazol-5-yl)-1,3,4-trimethylpyridin-2(1H)-one], the figures for the 50% inhibitory concentration (IC50) on human TLR7, at human TLR9 and on human TLR8 were 2.99 nM, 19000 nM and 6.77 nM, respectively.

Turning to `Cc1c(-c2[nH]c3sc(C4CCN(C(C)C)CC4)nc3c2C(C)C)cn2ncnc2c1C` [Example 44, 5-(7,8-dimethyl-[1,2,4]triazolo[1,5-a]pyridin-6-yl)-6-isopropyl-2-(1-isopropylpiperidin-4-yl)-4H-pyrrolo[3,2-d]thiazole], the IC50 came to 1.68 nM on human TLR7, 15100 nM against human TLR9 and 0.63 nM at human TLR8.
